Experimental data taken from patent US6872735B2, “LFA-1 antagonist compounds” (Genentech, Inc., priority 2000, dated 2005).

What was measured:
[1] = Serum/plasma protein binding (ultrafiltration, LC/MS-MS); format: in vitro ADME; conditions: pH 7.4, 37° C., Centrifree ultrafiltration
Experimental: Binding of test compounds was performed according to procedures described in Borga et al (Journal of Pharmacokinetics & Biopharmaceutics, 1997, 25(1):63-77) and Godolphin et al (Therapeutic drug monitoring, 1983, 5:319-23). Duplicate samples of 10 μl of test compound stock solution (1 μg/μL) was spiked into 1 mL of either buffer or serum/plasma adjusted to pH 7.4 using CO2 at room temperature. Samples were equilibrated by incubating vials in a water bath with shaker at 37° C. for 15 minutes. 200 μl of the buffer spiked sample was saved as prefiltrate. 800 μl of buffer spiked samples and 1 ml of serum spiked samples were centrifuged at 1500 g, 37° C., for 30 minutes in a Centrifree ultrafiltration device (Amicon Inc.). Pre and post-filtrates were then analyzed by LC/MS-MS and percent binding of test compound to serum/plasma protein was determined from the post and prefiltrates accounting for any non-specific binding determined from the buffer control.

[2] = molecular target: recombinant human LFA-1 (LFA-1:ICAM-1) (Homo sapiens, UniProt P05107+P20701); experiment: PLM2 antibody capture LFA-1:ICAM-1 assay
recombinant human LFA-1 (LFA-1:ICAM-1), sequence (P20701 26-1170): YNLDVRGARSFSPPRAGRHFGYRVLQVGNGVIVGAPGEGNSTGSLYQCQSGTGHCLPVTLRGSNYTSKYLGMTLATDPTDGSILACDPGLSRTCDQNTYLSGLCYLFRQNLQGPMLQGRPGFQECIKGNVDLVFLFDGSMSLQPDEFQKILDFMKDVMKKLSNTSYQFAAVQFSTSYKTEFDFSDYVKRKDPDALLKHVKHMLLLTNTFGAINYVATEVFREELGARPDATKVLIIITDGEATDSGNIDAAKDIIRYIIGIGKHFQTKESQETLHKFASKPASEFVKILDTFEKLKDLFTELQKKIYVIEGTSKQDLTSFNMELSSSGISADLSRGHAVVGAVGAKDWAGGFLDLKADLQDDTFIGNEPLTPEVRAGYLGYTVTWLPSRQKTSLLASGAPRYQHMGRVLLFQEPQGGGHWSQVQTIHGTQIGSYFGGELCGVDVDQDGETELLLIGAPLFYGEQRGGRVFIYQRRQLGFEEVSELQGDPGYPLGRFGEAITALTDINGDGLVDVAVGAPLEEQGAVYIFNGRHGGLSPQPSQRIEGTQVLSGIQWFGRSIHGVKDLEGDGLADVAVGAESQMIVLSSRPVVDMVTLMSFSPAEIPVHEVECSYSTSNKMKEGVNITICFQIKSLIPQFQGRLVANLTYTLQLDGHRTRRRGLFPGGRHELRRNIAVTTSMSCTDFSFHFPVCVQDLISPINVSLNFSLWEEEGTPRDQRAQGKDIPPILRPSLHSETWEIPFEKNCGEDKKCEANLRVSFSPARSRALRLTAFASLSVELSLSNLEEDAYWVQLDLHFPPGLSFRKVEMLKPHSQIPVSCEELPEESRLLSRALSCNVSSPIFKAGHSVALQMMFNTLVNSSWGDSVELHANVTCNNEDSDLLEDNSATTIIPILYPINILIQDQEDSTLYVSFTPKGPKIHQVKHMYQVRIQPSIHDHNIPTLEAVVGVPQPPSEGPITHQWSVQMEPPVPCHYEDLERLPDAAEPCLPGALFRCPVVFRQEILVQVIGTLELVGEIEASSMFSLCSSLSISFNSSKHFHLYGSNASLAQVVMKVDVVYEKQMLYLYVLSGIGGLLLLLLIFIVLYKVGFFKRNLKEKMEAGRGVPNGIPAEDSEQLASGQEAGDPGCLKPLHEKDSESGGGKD
recombinant human LFA-1 (LFA-1:ICAM-1), sequence (P05107 23-769): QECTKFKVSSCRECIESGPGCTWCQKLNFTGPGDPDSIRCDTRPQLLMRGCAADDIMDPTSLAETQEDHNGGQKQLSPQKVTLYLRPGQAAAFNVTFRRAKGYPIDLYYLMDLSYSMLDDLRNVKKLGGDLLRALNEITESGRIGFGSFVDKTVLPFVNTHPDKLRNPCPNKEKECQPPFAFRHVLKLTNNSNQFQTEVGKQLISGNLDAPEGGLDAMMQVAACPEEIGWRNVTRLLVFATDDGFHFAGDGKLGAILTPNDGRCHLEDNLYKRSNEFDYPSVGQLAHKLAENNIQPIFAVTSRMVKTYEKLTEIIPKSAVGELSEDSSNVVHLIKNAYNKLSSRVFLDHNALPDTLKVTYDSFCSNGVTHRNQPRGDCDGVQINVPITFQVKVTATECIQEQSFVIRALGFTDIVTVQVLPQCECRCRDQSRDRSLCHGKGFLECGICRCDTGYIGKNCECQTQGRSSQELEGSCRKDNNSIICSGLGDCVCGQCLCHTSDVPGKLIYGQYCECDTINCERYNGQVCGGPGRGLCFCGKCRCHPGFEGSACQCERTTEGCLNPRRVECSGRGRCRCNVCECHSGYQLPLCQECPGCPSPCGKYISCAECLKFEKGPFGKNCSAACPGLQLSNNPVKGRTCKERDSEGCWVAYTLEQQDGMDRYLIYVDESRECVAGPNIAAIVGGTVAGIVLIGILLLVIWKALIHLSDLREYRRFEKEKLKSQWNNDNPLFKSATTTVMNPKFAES
Experimental: The plates are blocked with 0.5% BSA in assay buffer (0.02M Hepes, 0.15M NaCl, and 1 mM MnCl2) 1 h at room temperature. Plates are washed with 50 mM Tris pH 7.5, 0.1M NaCl, 0.05% Tween 20 and 1 mM MnCl2. Purified full-length recombinant human LFA-1 protein is diluted to 2 μg/ml in assay buffer and 100 μl/well is added to plates and incubated 1 h at 37° C. Plates are washed 3×. 50 μl/well inhibitors, appropriately diluted in assay buffer, are added to a 2× final concentration and incubated for 30′ at 37° C. […] Plates are washed and bound ICAM-Ig is detected with Goat anti-HuIgG(Fc)-HRP for 1 h at room temperature. Plates are washed and developed with 100 μl/well TMB substrate for 5-10′ at room temperature.

Work on O=C(/C=C/c1ccco1)NCc1cc(Cl)c(C(=O)N[C@@H](CNC(=O)C2CCNCC2)C(=O)O)c(Cl)c1 [Compound 3] yielded a fraction unbound at 15 min, 10 µg/mL [1] of 0.192 and an IC50 [2] of 11 nM.
O=C(/C=C/c1ccco1)NCc1cc(Cl)c(C(=O)N[C@@H](CNC(=O)[C@@H]2CCCN2)C(=O)O)c(Cl)c1 [Compound 4] showed a fraction unbound at 15 min, 10 µg/mL [1] of 0.171 and an IC50 [2] of 4 nM.
Work on O=C(/C=C/c1ccco1)NCc1cc(Cl)c(C(=O)N[C@@H](CNC(=O)[C@H]2CCCN2)C(=O)O)c(Cl)c1 [Compound 5] yielded a fraction unbound at 15 min, 10 µg/mL [1] of 0.169 and an IC50 [2] of 8 nM.
With O=C(/C=C/c1ccco1)NCc1cc(Cl)c(C(=O)N[C@@H](CNC(=O)[C@@H]2CSCN2)C(=O)O)c(Cl)c1 [Compound 6] the fraction unbound at 15 min, 10 µg/mL [1] was 0.0457 and the IC50 [2] was 7 nM.
In the case of O=C(/C=C/c1ccco1)NCc1cc(Cl)c(C(=O)N[C@@H](CNC(=O)[C@@H]2CCCCN2)C(=O)O)c(Cl)c1 [Compound 9], the fraction unbound at 15 min, 10 µg/mL [1] is reported as 0.228 and the IC50 [2] is reported as 2 nM.
In the case of O=C(/C=C/c1ccco1)NCc1cc(Cl)c(C(=O)N[C@@H](CNC(=O)[C@H]2C[C@H](O)CN2)C(=O)O)c(Cl)c1 [Compound 10], the fraction unbound at 15 min, 10 µg/mL [1] is reported as 0.341 and the IC50 [2] is reported as 3 nM.
Compound O=C(/C=C/c1ccco1)NCc1cc(Cl)c(C(=O)N[C@@H](CNC(=O)[C@H]2C[C@@H](O)CN2)C(=O)O)c(Cl)c1 [Compound 12] has a fraction unbound at 15 min, 10 µg/mL [1] of 0.205 and an IC50 [2] of 2 nM.
C[C@H]1CCN[C@@H]1C(=O)NC[C@H](NC(=O)c1c(Cl)cc(CNC(=O)/C=C/c2ccco2)cc1Cl)C(=O)O [Compound 13] showed a fraction unbound at 15 min, 10 µg/mL [1] of 0.224 and an IC50 [2] of 4 nM.
Compound O=C(/C=C/c1ccco1)NCc1cc(Cl)c(C(=O)N[C@@H](CNC(=O)[C@@H]2C[C@@H](O)CN2)C(=O)O)c(Cl)c1 [Compound 14] has a fraction unbound at 15 min, 10 µg/mL [1] of 0.274 and an IC50 [2] of 2 nM.
Work on O=C(/C=C/c1ccco1)NCc1cc(Cl)c(C(=O)N[C@@H](CNC(=O)[C@H]2CSCN2)C(=O)O)c(Cl)c1 [Compound 15] yielded a fraction unbound at 15 min, 10 µg/mL [1] of 0.0749 and an IC50 [2] of 4 nM.
Work on CC(=O)N1CCC[C@H]1C(=O)NC[C@H](NC(=O)c1c(Cl)cc(CNC(=O)/C=C/c2ccco2)cc1Cl)C(=O)O [Compound 17] yielded a fraction unbound at 15 min, 10 µg/mL [1] of 0.154 and an IC50 [2] of 3 nM.
With CN(C[C@H](NC(=O)c1c(Cl)cc(CNC(=O)/C=C/c2ccco2)cc1Cl)C(=O)O)C(=O)[C@@H]1CCCN1 [Compound 35] the fraction unbound at 15 min, 10 µg/mL [1] was 0.486 and the IC50 [2] was 9 nM.
For O=C(N[C@@H](CNC(=O)[C@@H]1CSCN1)C(=O)O)c1c(Cl)cc(C(O)CCc2cccc(O)c2)cc1Cl (stereo partly drawn) [Compound 36], the fraction unbound at 15 min, 10 µg/mL [1] was 0.0716 and the IC50 [2] was 2 nM.
With O=C(N[C@@H](CNC(=O)[C@H]1C[C@@H](O)CN1)C(=O)O)c1c(Cl)cc(C(O)CCc2cccc(Cl)c2)cc1Cl (stereo partly drawn) [Compound 37] the fraction unbound at 15 min, 10 µg/mL [1] was 0.0681.
O=C(/C=C/c1ccco1)NCc1cc(Cl)c(C(=O)N[C@@H](CNC(=O)[C@@H]2CSC(=O)N2)C(=O)O)c(Cl)c1 [Compound 38] showed a fraction unbound at 15 min, 10 µg/mL [1] of 0.0671 and an IC50 [2] of 12 nM.
For O=C(/C=C/c1ccco1)NCc1cc(Cl)c(C(=O)N[C@@H](CNC(=O)[C@@H]2CSC(=S)N2)C(=O)O)c(Cl)c1 [Compound 40], the fraction unbound at 15 min, 10 µg/mL [1] was 0.0307 and the IC50 [2] was 2 nM.
For O=C(/C=C/c1ccco1)NCc1cc(Cl)c(C(=O)N[C@@H](CNC(=O)[C@H]2NCC[C@@H]2O)C(=O)O)c(Cl)c1 [Compound 41], the fraction unbound at 15 min, 10 µg/mL [1] was 0.152 and the IC50 [2] was 3 nM.
Compound O=C(/C=C/c1ccco1)NCc1cc(Cl)c(C(=O)N[C@@H](CNC(=O)C2CSCN2)C(=O)O)c(Cl)c1 (stereo partly drawn) [Compound 42] has a fraction unbound at 15 min, 10 µg/mL [1] of 0.086 and an IC50 [2] of 3 nM.
CC1CC[C@@H](C(=O)NC[C@H](NC(=O)c2c(Cl)cc(CNC(=O)/C=C/c3ccco3)cc2Cl)C(=O)O)N1 (stereo partly drawn) [Compound 44] showed a fraction unbound at 15 min, 10 µg/mL [1] of 0.17 and an IC50 [2] of 2 nM.
Work on O=C(/C=C/c1ccco1)NCc1cc(Cl)c(C(=O)N[C@@H](CNC(=O)C2CCCO2)C(=O)O)c(Cl)c1 (stereo partly drawn) [Compound 51] yielded a fraction unbound at 15 min, 10 µg/mL [1] of 0.072 and an IC50 [2] of 5 nM.
